Entries after “also recorded” stand apart in the source; their conditions may differ.
How the values were obtained:
[1] = Oral bioavailability / systemic absorption estimate versus prior IV pharmacokinetic data; type: in vivo, human; conditions: this study, PD patients
Method: PK data were collected on the 10 patients enrolled in Stage 1 and 10 patients enrolled in Stage 2 to determine the extent of systemic absorption. In Stage 1, PK data were obtained at each visit, pre-medication, at 1, 2, 4, 8 and 24 hours (Table 10). In Stage 2, PK was measured on days 1 and 6 of the randomization period pre-medication, at 1, 2, 4 and 8 hours (Table 11).

[2] = Prior clinical trials of intravenous squalamine; type: in vivo, human; conditions: prior studies
Method: Systemic absorption of the aminosterol following oral administration was negligible both in this study and in prior studies involving mice, rats and dogs. […] The topical action would also explain why adverse events were largely confined to the gastrointestinal tract.
In the current clinical trial, squalamine (ENT-01) was administered orally to subjects with PD who have long standing constipation. Although this trial was the first in man oral dosing study of ENT-01, humans have long been exposed to low doses of squalamine (milligram to microgram) in the various commercial dogfish shark liver extracts available as nutraceuticals (e.g., Squalamax).

[3] = tested on: mice with constipation due to overexpression of human αS; conditions: mouse models of PD, oral administration; cited from earlier work
[4] = tested on: IPANs (intrinsic primary afferent neuron); conditions: perfusion through lumen of isolated bowel segment; cited from earlier work
[5] = mice, systemic administration; into the duodenum through the biliary tract; cited from earlier work
[6] = prior studies; cited from earlier work

CC(C)[C@@H](CC[C@@H](C)[C@H]1CC[C@H]2[C@@H]3[C@H](O)C[C@H]4C[C@@H](NCCCNCCCCN)CC[C@]4(C)[C@H]3CC[C@]12C)OS(=O)(=O)O [squalamine]
systemic absorption following oral administration [1]: negligible; also recorded: not significantly absorbed
systemic blood levels after intravenous versus oral administration [2]: one thousand-fold greater
gastrointestinal motility [3]: stimulates gastro-intestinal motility; also recorded: reverse gastrointestinal dysmotility
effect on IPANs of the ENS [4]: excitation of IPANs
clearance and excretion [5]: cleared by the liver and excreted as the intact molecule
effect of intravenous administration on gastrointestinal motility [6]: not associated with increased gastrointestinal motility

Reference: patent publication US20200038416A1, “METHODS OF TREATING CARDIAC CONDUCTION DEFECTS USING AMINOSTEROL COMPOSITIONS” (Enterin, Inc., priority 2018, published 2020)
